{"source": "patent US20240216370A1", "about": "“TREATMENT OF CORNEAL VASCULARISATION” (VESTLANDETS INNOVASJONSSELSKAP AS, priority 2020, published 2024)", "key": {"[1]": {"target": "T1, PDGFRβ (N666Y) (Homo sapiens, UniProt P09619, N666Y)", "T1 construct": "Fibroblasts from affected individuals and healthy controls were obtained; endogenous in cells; host or cells: fibroblasts from OPDKD patients", "T1 sequence (P09619 33-1106 N666Y)": "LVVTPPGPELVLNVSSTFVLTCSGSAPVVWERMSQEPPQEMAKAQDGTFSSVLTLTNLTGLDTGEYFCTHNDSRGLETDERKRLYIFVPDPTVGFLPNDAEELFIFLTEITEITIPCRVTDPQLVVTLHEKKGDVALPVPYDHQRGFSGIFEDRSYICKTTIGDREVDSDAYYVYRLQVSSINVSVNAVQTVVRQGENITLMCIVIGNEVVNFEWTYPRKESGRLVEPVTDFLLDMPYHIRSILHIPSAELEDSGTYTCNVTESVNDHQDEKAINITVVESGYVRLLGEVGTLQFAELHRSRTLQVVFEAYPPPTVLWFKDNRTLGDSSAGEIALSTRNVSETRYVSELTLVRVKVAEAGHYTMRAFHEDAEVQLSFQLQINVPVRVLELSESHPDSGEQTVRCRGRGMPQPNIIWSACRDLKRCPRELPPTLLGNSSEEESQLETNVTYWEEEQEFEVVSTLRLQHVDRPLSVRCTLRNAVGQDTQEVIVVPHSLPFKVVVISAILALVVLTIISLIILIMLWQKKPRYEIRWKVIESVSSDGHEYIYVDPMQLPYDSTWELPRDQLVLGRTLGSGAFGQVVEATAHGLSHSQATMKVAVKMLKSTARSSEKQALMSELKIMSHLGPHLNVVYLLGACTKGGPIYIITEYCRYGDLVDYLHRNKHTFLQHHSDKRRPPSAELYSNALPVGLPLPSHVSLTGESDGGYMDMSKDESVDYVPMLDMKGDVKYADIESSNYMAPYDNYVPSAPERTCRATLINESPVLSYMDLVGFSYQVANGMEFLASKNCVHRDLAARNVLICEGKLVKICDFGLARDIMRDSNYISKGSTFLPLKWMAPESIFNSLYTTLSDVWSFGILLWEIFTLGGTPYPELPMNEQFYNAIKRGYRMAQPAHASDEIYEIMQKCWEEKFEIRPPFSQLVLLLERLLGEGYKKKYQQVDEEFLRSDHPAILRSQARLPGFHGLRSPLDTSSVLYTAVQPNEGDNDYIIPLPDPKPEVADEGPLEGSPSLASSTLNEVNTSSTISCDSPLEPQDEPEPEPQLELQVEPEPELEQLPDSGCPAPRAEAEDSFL", "assay": "ELISA analysis of phosphorylated PDGFRβ in OPDKD patient fibroblasts", "type": "cell-based", "description": "Fibroblasts from affected individuals and healthy controls were obtained. Transgenic HeLa cells were transduced with a murine retroviral vector containing the PDGFRβ (NM_002609.3) c.wt, c. 1996A>T (OPDKD) and c.1997A>G (a different activating mutation associated with severe Penttinen syndrome) variants.\nIn OPDKD, the affected parts of the body (corneas and skin, particular fingers and toes) are all exposed to variable temperatures. ^8 At a typical room temperature (20-22° C.) corneal temperatures lie around 32-34° and fall to around 30° C. as air temperatures reaches 0° C. ^9 We studied the effect of this physiological temperature difference on PDGFRβ auto-phosphorylation and signaling in OPDKD. Cells were either kept at 37° ° C. or incubated overnight at 32° C. […] For ELISA analysis of phosphorylated PDGFRβ, a DuoSet® IC Phospho-PDGFRβ kit (R&D systems) was used. Cell lysates were also subjected to immunoblot analysis with primary antibodies against downstream signaling partners: phospho-Ser473-AKT, phospho-Thr308-AKT, phospho-Tyr70-STAT1, STAT1, phospho-Tyr783-PLCγ1, PLCγ1, phospho-Thr202/Tyr204-MAPK3/ERK1 and MAPK3/ERK1 (all from Cell Signaling Technology). […]"}, "[2]": {"system": "AKT", "assay": "Immunoblot of downstream signaling partner AKT (phospho-Ser473, phospho-Thr308) in patient fibroblasts", "type": "cell-based, human", "conditions": "0.1 μM imatinib", "method": "Cells were either kept at 37° ° C. or incubated overnight at 32° C. Cells were then left untreated or treated with 0.1 μM imatinib (STI571, Selleckchem) for 6 hours. For ELISA analysis of phosphorylated PDGFRβ, a DuoSet® IC Phospho-PDGFRβ kit (R&D systems) was used. Cell lysates were also subjected to immunoblot analysis with primary antibodies against downstream signaling partners: phospho-Ser473-AKT, phospho-Thr308-AKT, phospho-[MUT]-STAT1, STAT1, phospho-[MUT]-PLCγ1, PLCγ1, phospho-Thr202/Tyr204-MAPK3/ERK1 and MAPK3/ERK1 (all from Cell Signaling Technology)."}, "[3]": {"system": "OPDKD patient", "assay": "Oral (systemic) imatinib treatment of an OPDKD patient, effect in the eye", "type": "in vivo, human", "conditions": "systemic imatinib for almost one year, 6 months at maximal recommended dose of 800 mg"}}, "note": "Entries after “also recorded” stand apart in the source; their conditions may differ.", "data": [{"smiles": "Cc1ccc(NC(=O)c2ccc(CN3CCN(C)CC3)cc2)cc1Nc1nccc(-c2cccnc2)n1", "note": "[imatinib]", "values": [{"measurement": "sensitivity of OPDKD fibroblasts compared with Penttinen fibroblasts", "setting": "[1]; OPDKD (N666Y) vs Penttinen (N666S) fibroblasts", "result": "less sensitive"}, {"measurement": "effect on levels of P-PDGFRβ and downstream proteins", "setting": "[1]; OPDKD fibroblasts, imatinib, 6 hours", "result": "clear, dose dependent effect"}, {"measurement": "levels of phosphorylated PDGFRβ", "setting": "[1]; patient fibroblasts, high doses of imatinib (1 μM)", "result": "normalization"}, {"measurement": "phosphorylation of Ser473 and Thr308 AKT", "setting": "[2]", "result": "Normalization"}, {"measurement": "effect of the drug on the eye of an OPDKD patient", "setting": "[3]", "result": "no effect; also recorded: without effect"}]}]}
